The target of the assay is recombinant active human PAI-1 (Homo sapiens, UniProt P05121). In words: Inhibition of the activity of PAI-1 (fibrin clot formation and breakdown monitored by turbidity in microplate wells; fibrinolytic activity). As to conditions: in vitro, pH 7.4 phosphate buffer, clot absorbance two hours after fibrin formation, 2 nM PAI-1 solution, tissue plasminogen activator, fibrinogen, human thrombin, read-out: fibrinolytic activity IC50 (concentration of product that inhibits PAI-1 activity by 50%). The format is biochemical.
Sequence of recombinant active human PAI-1 (P05121 24-402): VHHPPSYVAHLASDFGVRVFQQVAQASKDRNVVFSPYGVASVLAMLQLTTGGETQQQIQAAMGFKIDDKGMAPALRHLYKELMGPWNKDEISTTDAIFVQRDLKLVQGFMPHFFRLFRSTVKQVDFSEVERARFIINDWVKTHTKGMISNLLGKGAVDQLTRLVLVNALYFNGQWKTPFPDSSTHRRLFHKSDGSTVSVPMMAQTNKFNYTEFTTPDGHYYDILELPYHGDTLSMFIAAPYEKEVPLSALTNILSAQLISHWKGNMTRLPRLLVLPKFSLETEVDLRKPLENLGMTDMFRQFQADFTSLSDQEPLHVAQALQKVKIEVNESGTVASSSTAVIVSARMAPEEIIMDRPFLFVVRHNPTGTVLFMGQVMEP

For `COc1ccc(Oc2c(/C=C(/C(=O)O)c3ccncc3)sc3cc(OCc4ccccc4)c(OCc4ccccc4)cc23)cc1`, the IC50 worked out at 13 µM.

In the case of `O=C(O)/C(=C/c1sc2cc(OCc3ccccc3)c(OCc3ccccc3)cc2c1Oc1ccc(OCc2ccccc2)cc1)c1ccncc1`, the IC50 is 7 µM.

As for `O=C(O)/C(=C/c1sc2cc(OCc3ccccc3)c(OCc3ccccc3)cc2c1Oc1ccc(-c2ccncc2)cc1)c1ccncc1` [Example 66], the IC50 was 2.2 µM.

For `COc1cc2sc(/C=C(/C(=O)O)c3ccncc3)c(Oc3cccnc3)c2cc1OCc1ccccc1` [Example 67], the IC50 turned out to be 5 µM.

These data come from patent publication US6048875A, “Benzothiophene, benzofuran and indole compounds” (Adir et Compagnie, priority 1998, dated 2000).
